Holding throughout (format): in vivo
One experiment has as its system Kochia (Kochia scoparia). The experiment can be described thus: Test A preemergence. Conditions: Bassia scoparia, pre-emergence, 240 h. A digest of the protocol: (§1)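 In a loam soil and sand blend, planted seeds got a preemergence directed soil spray, and young plants at the one- to two-leaf stage, 2–10 cm high, got a postemergence application; ~10 d greenhouse hold; injury rated visually, 0 = none, 100 = complete control.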

Experiment [1] relates to barnyardgrass (Echinochloa crus-galli). In words: Test A preemergence. Conditions: Echinochloa crus-galli, pre-emergence, 240 h. The procedure, abridged:
as §1

Experiment [2] has as its system giant foxtail (Setaria faberii). The experiment can be described thus: Test A preemergence. Conditions: Setaria faberi, pre-emergence, 240 h. The procedure, abridged: as §1
For experiment [3], the system named is pigweed (Amaranthus retroflexus). In words: Test A preemergence. The conditions noted are these: Amaranthus retroflexus, pre-emergence, 240 h.
In experiment [4] the test system is ragweed (common ragweed, Ambrosia elatior). The experiment can be described thus: Test A preemergence. The conditions noted are these: Ambrosia artemisiifolia, pre-emergence, 240 h. A digest of the protocol: as §1
The test system of experiment [5] is ryegrass, Italian (Italian ryegrass, Lolium multiflorum). The experiment can be described thus: Test A preemergence. The conditions noted are these: Lolium multiflorum, pre-emergence, 240 h. The procedure, abridged: as §1
Experiment [6] deals with Galium (catchweed bedstraw, Galium aparine). In words: Test A postemergence. The conditions noted are these: Galium, post-emergence, 240 h, 125 g ai/ha, postemergence, visual injury rating after approximately 10 d; read-out: Galium plant response rating (0 to 100 scale, 0 no effect, 100 complete control). A digest of the protocol: as §1
Experiment [7] concerns barnyardgrass (Echinochloa crus-galli). The experiment can be described thus: Test A postemergence. Conditions: Echinochloa crus-galli, post-emergence, 240 h, 125 g ai/ha, postemergence, visual injury rating after approximately 10 d; read-out: Barnyardgrass plant response rating (0 to 100 scale, 0 no effect, 100 complete control). A digest of the protocol: as §1
The subject of experiment [8] is blackgrass (Alopecurus myosuroides). In words: Test A postemergence. Conditions: Alopecurus myosuroides, post-emergence, 240 h, 125 g ai/ha, postemergence, visual injury rating after approximately 10 d; read-out: Blackgrass plant response rating (0 to 100 scale, 0 no effect, 100 complete control). The procedure, abridged:
as §1

The test system of another experiment is corn (Zea mays). The experiment can be described thus: Test A postemergence. Conditions: Zea mays, post-emergence, 240 h, 125 g ai/ha, postemergence, visual injury rating after approximately 10 d; read-out: Corn plant response rating (0 to 100 scale, 0 no effect, 100 complete control). The procedure, abridged:
as §1

Experiment [9] has as its system giant foxtail (Setaria faberii). The experiment can be described thus: Test A postemergence. The conditions noted are these: Setaria faberi, post-emergence, 240 h, 125 g ai/ha, postemergence, visual injury rating after approximately 10 d; read-out: Foxtail, Giant plant response rating (0 to 100 scale, 0 no effect, 100 complete control). A digest of the protocol:
as §1

Experiment [10] deals with pigweed (Amaranthus retroflexus). The experiment can be described thus: Test A postemergence. The conditions noted are these: Amaranthus retroflexus, post-emergence, 240 h, 125 g ai/ha, postemergence, visual injury rating after approximately 10 d; read-out: Pigweed plant response rating (0 to 100 scale, 0 no effect, 100 complete control). The procedure, abridged:
as §1

In experiment [11] the test system is ragweed (common ragweed, Ambrosia elatior). In words: Test A postemergence. Conditions: Ambrosia artemisiifolia, post-emergence, 240 h, 125 g ai/ha, postemergence, visual injury rating after approximately 10 d; read-out: Ragweed plant response rating (0 to 100 scale, 0 no effect, 100 complete control). A digest of the protocol:
as §1

In experiment [12] the test system is ryegrass, Italian (Italian ryegrass, Lolium multiflorum). The experiment can be described thus: Test A postemergence. The conditions noted are these: Lolium multiflorum, post-emergence, 240 h, 125 g ai/ha, postemergence, visual injury rating after approximately 10 d; read-out: Ryegrass, Italian plant response rating (0 to 100 scale, 0 no effect, 100 complete control). The procedure, abridged: as §1

The test system of experiment [13] is wheat (Triticum aestivum). In words: Test A postemergence. The conditions noted are these: Triticum aestivum, post-emergence, 240 h, 125 g ai/ha, postemergence, visual injury rating after approximately 10 d; read-out: Wheat plant response rating (0 to 100 scale, 0 no effect, 100 complete control). The procedure, abridged:
as §1

Consider `CN1CC(c2cccc(I)c2)C(C(=O)Nc2ccccc2F)C1=O` (stereo not drawn) [Compound 846], for which the pest or weed control at 125 g/ha in the experiment on Kochia (Kochia scoparia) (125 g ai/ha, preemergence, 0 to 100 scale where 0 is no effect and 100 is complete control, read-out: Kochia plant response rating) is 20%; in experiment [1] (125 g ai/ha, preemergence, 0 to 100 scale where 0 is no effect and 100 is complete control, read-out: Barnyardgrass plant response rating), 90%; in experiment [2] (125 g ai/ha, preemergence, 0 to 100 scale where 0 is no effect and 100 is complete control, read-out: Foxtail, Giant plant response rating), 90%; in [3] (125 g ai/ha, preemergence, 0 to 100 scale where 0 is no effect and 100 is complete control, read-out: Pigweed plant response rating) it was 0%; in experiment [4] (125 g ai/ha, preemergence, 0 to 100 scale where 0 is no effect and 100 is complete control, read-out: Ragweed plant response rating) it was 0%; in experiment [5] (125 g ai/ha, preemergence, 0 to 100 scale where 0 is no effect and 100 is complete control, read-out: Ryegrass, Italian plant response rating), 60%. The pest or weed control at 125 g/ha was found to be 0% in [6]; 90% in experiment [7]; 50% in experiment [8]; 90% in experiment [9]; 0% in [10]; 0% in [11]. In [12], the pest or weed control at 125 g/ha turned out to be 70%. Moreover, the pest or weed control at 500 g/ha in the experiment on Kochia (Kochia scoparia) (500 g ai/ha, Preemergence, visual injury vs untreated controls after approximately 10 d, read-out: Kochia plant response rating (0 to 100 scale where 0 is no effect and 100 is complete control)) came out at 70%; in experiment [1] (500 g ai/ha, Preemergence, visual injury vs untreated controls after approximately 10 d, read-out: Barnyardgrass plant response rating (0 to 100 scale where 0 is no effect and 100 is complete control)) it was 90%; in experiment [2] (500 g ai/ha, Preemergence, visual injury vs untreated controls after approximately 10 d, read-out: Foxtail, Giant plant response rating (0 to 100 scale where 0 is no effect and 100 is complete control)) it was 90%; in [3] (500 g ai/ha, Preemergence, visual injury vs untreated controls after approximately 10 d, read-out: Pigweed plant response rating (0 to 100 scale where 0 is no effect and 100 is complete control)) it was 0%; in [4] (500 g ai/ha, Preemergence, visual injury vs untreated controls after approximately 10 d, read-out: Ragweed plant response rating (0 to 100 scale where 0 is no effect and 100 is complete control)) it was 0%; in [5] (500 g ai/ha, Preemergence, visual injury vs untreated controls after approximately 10 d, read-out: Ryegrass, Italian plant response rating (0 to 100 scale where 0 is no effect and 100 is complete control)), 70%. Further, the plant injury at 125 g/ha with corn (Zea mays) turned out to be 60%; in experiment [13] it was 0%.
